Measurements reported in US8334002B2, “Cinnamaldehyde—allicin compositions and their method of use” (Valent BioSciences Corporation, priority 2008, dated 2012).

Assays:
[1] = test system: Root Knot Nematodes (Meloidogyne incognita); assay: Greenhouse pot test, root galling after inoculation with second stage juveniles; type: in vivo; details: 300 ppm total a.i.
Source text: Procedure for Greenhouse pot Tests:
2″×2″ plastic pots are filled with 140 to 150 g of plant growth medium that is made up of non-pasteurized sand and soil at 2:1 ratio. Three cucumber seeds (variety Straight Eight; in the case of tomatoes, variety Rutgers) are planted at uniform depth and watered. Upon emergence, two uniform seedlings are allowed to grow in each pot by removing the third seedling. Seedlings are selected when the first true leaf is emerged, generally 5 to 7 days after planting. Each pot is treated with test material diluted in 25 mL of water that is just sufficient to wet the soil but not drip. Except for untreated control, all test pots are inoculated with about 800 second stage juveniles of Root Knot Nematodes (Meloidogyne incognita). Plants are watered as needed. Twelve to fourteen days after the pots are inoculated, the plants are carefully removed from the pots, the roots are gently washed free of soil and placed on paper towels, and data on fresh weight of shoots, roots, number of galls/treatment and/or per gram of root are taken.

nematodes = details: at concentrations of 300 ppm; cited from earlier work
[2] = cucumber, preferred formulations of Table 2

## C=CCS[S+]([O-])CC=C (stereo not shown) [Allicin, allicin]
[1]; [2]
  % gall reduction in relation to M.i Control: 41.7%
  Average gall rating (0-9): 5.25
[1]; prototype formulations of Table 1
  % gall reduction in relation to M.i Control: 72.7%
[1]; prototype formulations of Table 1, 0 = no galls, 9 = heavy galling
  Average gall rating (0-9): 2.25

## O=CC=Cc1ccccc1 [Cinnamaldehyde, cinnamaldehyde]
[1]; [2]
  % gall reduction in relation to M.i Control: 19.4%
  Average gall rating (0-9): 7.25
nematodes
  nematicidal activity: only marginal
